One block for each compound: values may come before it.
Experiments:
Assay in all cases: ITC
[1] = test system: GR(A21G/U75C) (RNA, riboswitch) GGACAUGUAAUCGCGUGGAUAUGGCACGCAAGUUUCUACCGGGCACCGUAAAUGUCCGACCAUGUCC; settings: 100 mM KCl, 10 mM MgCl2; 50 mM K-HEPES, pH 7.5, 30 °C; apparent
[2] = test system: GR (xpt-pbuX guanine riboswitch) (RNA, riboswitch) GGACAUAUAAUCGCGUGGAUAUGGCACGCAAGUUUCUACCGGGCACCGUAAAUGUCCGACUAUGUCC; settings: 100 mM KCl, 10 mM MgCl2
[3] = test system: GRA (GR C74U) (RNA, riboswitch) GGACAUAUAAUCGCGUGGAUAUGGCACGCAAGUUUCUACCGGGCACCGUAAAUGUCCGAUUAUGUCC; settings: 100 mM KCl, 10 mM MgCl2; for KD: apparent
[4] = test system: GRA(A21G/U75C) (RNA, riboswitch) GGACAUGUAAUCGCGUGGAUAUGGCACGCAAGUUUCUACCGGGCACCGUAAAUGUCCGAUCAUGUCC; settings: 100 mM KCl, 10 mM MgCl2; 50 mM K-HEPES, pH 7.5, 30 °C; apparent
[5] = test system: GRA(A21U/U75A) (RNA, riboswitch) GGACAUUUAAUCGCGUGGAUAUGGCACGCAAGUUUCUACCGGGCACCGUAAAUGUCCGAUAAUGUCC; settings: 100 mM KCl, 10 mM MgCl2; 50 mM K-HEPES, pH 7.5, 30 °C; apparent
[6] = test system: GR(A21U/U75A) (RNA, riboswitch) GGACAUUUAAUCGCGUGGAUAUGGCACGCAAGUUUCUACCGGGCACCGUAAAUGUCCGACAAUGUCC; settings: 100 mM KCl, 10 mM MgCl2; 50 mM K-HEPES, pH 7.5, 30 °C; apparent
[7] = 50 mM K-HEPES, pH 7.5, 30 °C, apparent
[8] = data not shown, text says "GR or GRA"
[9] = 50 mM K-HEPES, pH 7.5, 30 °C, no detectable binding

SMILES: Nc1nc(N)c2[nH]cnc2n1
KD [1]: 13 ± 1.1 µM | KD [2, 7]: 4.1 ± 0.6 µM

SMILES: CNc1nc2[nH]cnc2c(=O)[nH]1
binding ([2]; 50 mM K-HEPES, pH 7.5, 30 °C, data not shown): no

SMILES: Nc1nc(Cl)c2[nH]cnc2n1
KD [1]: 24 ± 6.0 µM | KD ([3]; 50 mM K-HEPES, pH 7.5, 30 °C): 0.72 ± 0.04 µM | KD [2, 7]: 0.89 ± 0.06 µM

SMILES: Nc1nc(OCc2ccccc2)c2[nH]cnc2n1
binding [2, 8]: no

SMILES: O=c1[nH]cnc2nc[nH]c12
KD [1]: 9.5 ± 0.22 µM | binding [3, 9]: no | binding ([2]; pH 7.5 to 6.0, no change, apparent): yes | KD [6]: 3.3 ± 0.32 µM

SMILES: O=c1[nH]c(=O)c2[nH]cnc2[nH]1
binding [3, 9]: no

SMILES: Nc1nc(Br)c2[nH]cnc2n1
KD ([3]; 50 mM K-HEPES, pH 7.5, 30 °C): 2.7 ± 1.2 µM | KD [2, 7]: 2.1 ± 0.6 µM

SMILES: Nc1nc(=S)c2[nH]cnc2[nH]1
KD [2, 7]: 0.073 µM

Results, then the compound that gave them:

binding [3, 8]: no
SMILES: c1coc(CNc2ncnc3[nH]cnc23)c1

binding [2, 8]: no
SMILES: CSc1nc(N)nc2[nH]cnc12

binding [3, 9]: no
SMILES: Nc1nc2[nH]cnc2c(=O)[nH]1

KD ([3]; 50 mM K-HEPES, pH 7.5, 30 °C): 0.47 ± 0.04 µM | binding [2, 9]: no | KD [4]: 6.0 ± 1.1 µM | KD [5]: 2.1 ± 0.19 µM
SMILES: Nc1ncnc2[nH]cnc12

KD [2, 7]: 4.4 ± 1.2 µM
SMILES: Nc1ncc2[nH]cnc2n1

KD ([3]; 50 mM K-HEPES, pH 7.5, 30 °C): 20 ± 6 µM | KD [2, 7]: 23 ± 6 µM
SMILES: COc1nc(N)nc2[nH]cnc12

KD ([3]; 50 mM K-HEPES, pH 7.5, 30 °C): 4.0 ± 1.1 µM
SMILES: Nc1nc(F)nc2[nH]cnc12

From publication PMC2721690 (2009)
